Laboratory results: US20250276089A1, “CO-DELIVERY OF INHIBITORY NUCLEIC ACIDS AND GENOME EDITORS FOR TUMOR THERAPY” (The Board of Regents of The University of Texas System, priority 2022, published 2025)

Tested on: tumor cells
Assay: mRNA delivery efficacy in tumor cells treated with an FAK inhibitor plus siCtrl+mRNA-LNPs
Format: cell-based
Conditions: co-administered with siCtrl+mRNA-LNPs

CS(=O)(=O)c1cccc(CNc2nc(Nc3ccc4c(c3)CCC(=O)N4)ncc2C(F)(F)F)c1 [FAK inhibitor, PF-573228]
mRNA delivery efficacy and protein expression: enhanced
